Common to all, as to format: cell-based
The subject of one assay is SW480 cells (G12V). The assay is described as follows: Cell viability assay (CellTiter-Glo), SW480 cells. The settings on record: Homo sapiens, 72 h; SW480 cells, 3 days incubation, CellTiter-Glo luminescence; read-out: Inhibition of Cancerous Cells IC50 SW480 (G12V). The protocol: (§1) H358, H23, SW48, and AsPC-1 cells were cultured in RPMI 1640 media supplemented with 10% fetal bovine serum, streptomycin, and penicillin. Lovo and SW480 cells were cultured in DMEM media supplemented with 10% fetal bovine serum, streptomycin, and penicillin. The cell lines were plated in their respective medium supplemented with 2.5% fetal bovine serum, streptomycin, and penicillin. All cell lines were plated in white walled 96-well plates at 2,000 cells/well or 384-well plates at 500 cells/well, except Lovo, which were plated at 4,000 or 1,000 cells/well, respectively. The cells were incubated in DMSO (control) or a compound for 3 days at 37° C. under 5% CO2. A CELLTITER-GLO® reagent (100 μL) was then added to each well. After a 10 min incubation with shaking, luminescence was measured using an ENVISION® multimode plate reader.
In general terms: Cellular ATP, detected with luciferase, serves as a proxy for viable cell number.

A further assay relates to Lovo cells (G13D). The assay is described as follows: Cell viability assay (CellTiter-Glo), Lovo cells. The following applies: Homo sapiens, 72 h; Lovo cells, 3 days incubation, CellTiter-Glo luminescence; read-out: Inhibition of Cancerous Cells IC50 Lovo (G13D). On the procedure: as §1
Another assay concerns H358 cells (G12C). The experiment in a line: Cell viability assay (CellTiter-Glo), H358 cells. The following applies: Homo sapiens, NCI-H358, 72 h; H358 cells, 3 days incubation, CellTiter-Glo luminescence; read-out: Inhibition of Cancerous Cells IC50 H358 (G12C). On the procedure: as §1
The test system of a further assay is SW48 cells (wt). The assay is described as follows: Cell viability assay (CellTiter-Glo), SW48 cells. The settings on record: Homo sapiens, 72 h; SW48 cells, 3 days incubation, CellTiter-Glo luminescence; read-out: Inhibition of Cancerous Cells IC50 SW48 (wt). On the procedure: as §1

pIC50: −log10 of the molar value.

Broadly, the pIC50 is −log10 of the IC50, conventionally taken in molar units. Consider `COc1cc2c(N[C@H](C)c3cccc(Br)c3)nc(C)nc2cc1OCCCCCCCCN1CCC(c2cc3c(cc2F)C(=O)N(C2CCC(=O)NC2=O)C3)CC1` (stereo partly drawn) [Compound A50, 3-(5-(1-(8-((4-(((R)-1-(3-Bromophenyl)ethyl)amino)-6-methoxy-2-methyl-quinazolin-7-yl)oxy)octyl)piperidin-4-yl)-6-fluoro-1-oxoisoindolin-2-yl)piperidine-2,6-dione], for which the pIC50 in the assay with SW480 cells (G12V) was 6.33; in the assay with Lovo cells (G13D), 6.37; in the assay on H358 cells (G12C) it was 6.02; in the assay on SW48 cells (wt), 6.10.
On to `COc1ccc(C2=N[C@@H](c3ccc(Cl)cc3)[C@@H](c3ccc(Cl)cc3)N2C(=O)N2CCN(CC(=O)NCCCCCCCCCCOc3cc4nc(C)nc(N[C@H](C)c5cccc(Br)c5)c4cc3OC)C(=O)C2)c(OC(C)C)c1` [Compound C3, 2-(4-((4S,5R)-4,5-Bis(4-chlorophenyl)-2-(2-isopropoxy-4-methoxyphenyl)-4,5-dihydro-1H-imidazole-1-carbonyl)-2-oxopiperazin-1-yl)-N-(10-((4-(((R)-1-(3-bromophenyl)-ethyl)amino)-6-methoxy-2-methylquinazolin-7-yl)oxy)decyl)acetamide], for which the pIC50 with SW480 cells (G12V), with Lovo cells (G13D), in the assay on H358 cells (G12C) and in the assay on SW48 cells (wt) was less than 5.00 in each case.
For `COc1cc2c(N[C@H](C)c3cccc(Br)c3)nc(C)nc2cc1OCCCCCCCCCCC(=O)N[C@H](C(=O)N1C[C@H](O)C[C@H]1C(=O)NCc1ccc(-c2scnc2C)cc1)C(C)(C)C` [Compound D3, (2S,4R)-1-((S)-2-(11-((4-(((R)-1-(3-Bromophenyl)ethyl)amino)-6-methoxy-2-methylquinazolin-7-yl)oxy)undecanamido)-3,3-dimethylbutanoyl)-4-hydroxy-N-(4-(4-methyl-thiazol-5-yl)benzyl)pyrrolidine-2-carboxamide], the pIC50 in the assay with SW480 cells (G12V), in the assay with Lovo cells (G13D), with H358 cells (G12C) and with SW48 cells (wt) was less than 5.00 throughout.
`COc1cc2c(N[C@H](C)c3cccc(Br)c3)nc(C)nc2cc1OCCCCCCCCCC(=O)NCc1scc2c1CN(C1CCC(=O)NC1=O)C2=O` (stereo partly drawn) [Compound A39, 10-((4-(((R)-1-(3-Bromophenyl)ethyl)amino)-6-methoxy-2-methylquinazolin-7-yl)oxy)-N-((5-(2,6-dioxopiperidin-3-yl)-4-oxo-5,6-dihydro-4H-thieno[3,4-c]pyrrol-1-yl)-methyl)decanamide]: the pIC50 with SW480 cells (G12V) was 5.59; in the assay with Lovo cells (G13D) it was 6.10; with H358 cells (G12C) it was 6.17; in the assay on SW48 cells (wt) it was 6.68.
`COc1cc2c(N[C@H](C)c3cccc(Br)c3)nc(C)nc2cc1OCCCCCN1CCC(c2cc(F)cc3c2CN(C2CCC(=O)NC2=O)C3=O)CC1` (stereo partly drawn) [Compound A11, 3-(4-(1-(5-((4-(((R)-1-(3-Bromophenyl)ethyl)amino)-6-methoxy-2-methyl-quinazolin-7-yl)oxy)pentyl)piperidin-4-yl)-6-fluoro-1-oxoisoindolin-2-yl)piperidine-2,6-dione]: the pIC50 in the assay on SW480 cells (G12V) is 6.25; in the assay on Lovo cells (G13D) it was 6.39; in the assay with H358 cells (G12C), 5.80; in the assay with SW48 cells (wt), 6.29.
As for `COc1ccc(C2=N[C@@H](c3ccc(Cl)cc3)[C@@H](c3ccc(Cl)cc3)N2C(=O)N2CCN(CC(=O)NCCCCCCOc3cc4nc(C)nc(N[C@H](C)c5cccc(Br)c5)c4cc3OC)C(=O)C2)c(OC(C)C)c1` [Compound C1, 2-(4-((4S,5R)-4,5-Bis(4-chlorophenyl)-2-(2-isopropoxy-4-methoxyphenyl)-4,5-dihydro-1H-imidazole-1-carbonyl)-2-oxopiperazin-1-yl)-N-(6-((4-(((R)-1-(3-bromophenyl)-ethyl)amino)-6-methoxy-2-methylquinazolin-7-yl)oxy)hexyl)acetamide], the pIC50 in the assay with SW480 cells (G12V), in the assay on Lovo cells (G13D), in the assay on H358 cells (G12C) and with SW48 cells (wt) was less than 5.00 in each case.
In the case of `CNCc1ccccc1-c1csc([C@@H](C)Nc2nc(C)nc3cc(OCCCCCCCN4CCC(c5cc(F)cc6c5CN(C5CCC(=O)NC5=O)C6=O)CC4)c(OC)cc23)c1` (stereo partly drawn) [Compound A15, 3-(6-Fluoro-4-(1-(7-((6-methoxy-2-methyl-4-(((R)-1-(4-(2-((methylamino)-methyl)phenyl)thiophen-2-yl)ethyl)amino)quinazolin-7-yl)oxy)heptyl)piperidin-4-yl)-1-oxoisoindolin-2-yl)piperidine-2,6-dione], the pIC50 in the assay with SW480 cells (G12V) was 6.43; in the assay on Lovo cells (G13D), 6.59; with H358 cells (G12C) it was 6.26; in the assay on SW48 cells (wt) it was 6.39.
The like results for `COc1cc2c(N[C@H](C)c3cccc(Br)c3)nc(C)nc2cc1OCCCCCCCCCCNC(=O)[C@H](CC(C)C)NC(=O)[C@@H](O)[C@H](N)Cc1ccccc1` [Compound B8, (S)-2-((2S,3R)-3-Amino-2-hydroxy-4-phenylbutanamido)-N-(10-((4-(((R)-1-(3-bromophenyl)ethyl)amino)-6-methoxy-2-methylquinazolin-7-yl)oxy)decyl)-4-methylpentanamide] were, in that order, 6.26, 6.41, 5.92 and 6.00.
The like results for `COc1cc2c(N[C@H](C)c3cccc(Br)c3)nc(C)nc2cc1OCCCCN1CCN(C(=O)CNc2cc(F)cc3c2CN(C2CCC(=O)NC2=O)C3=O)CC1` (stereo partly drawn) [Compound A57, 3-(4-((2-(4-(4-((4-(((R)-1-(3-Bromophenyl)ethyl)amino)-6-methoxy-2-methyl-quinazolin-7-yl)oxy)butyl)piperazin-1-yl)-2-oxoethyl)amino)-6-fluoro-1-oxoisoindolin-2-yl)piperidine-2,6-dione] were, in that order, 5.28, 6.05, 5.48 and 5.54.
For the compound `CNCc1ccccc1-c1csc([C@H](C)Nc2nc(C)nc3c(CCCCCCCN4CCC(c5cc(F)cc6c5CN(C5CCC(=O)NC5=O)C6=O)CC4)c(OC)c(OC)cc23)c1` (stereo partly drawn) [Compound A56, 3-(4-(1-(7-(6,7-Dimethoxy-2-methyl-4-(((S)-1-(4-(2-((methylamino)methyl)-phenyl)thiophen-2-yl)ethyl)amino)quinazolin-8-yl)heptyl)piperidin-4-yl)-6-fluoro-1-oxoisoindolin-2-yl)piperidine-2,6-dione], the pIC50 was 6.59 in the assay on SW480 cells (G12V), 6.82 in the assay on Lovo cells (G13D), 6.44 with H358 cells (G12C) and 6.72 in the assay with SW48 cells (wt).
The like results for `COc1cc2c(N[C@H](C)c3cccc(Br)c3)nc(C)nc2cc1OCCCCCCCC(=O)NCc1ccc2c(c1)CN(C1CCC(=O)NC1=O)C2=O` (stereo partly drawn) [Compound A8, 8-((4-(((R)-1-(3-Bromophenyl)ethyl)amino)-6-methoxy-2-methylquinazolin-7-yl)oxy)-N-((2-(2,6-dioxopiperidin-3-yl)-1-oxoisoindolin-5-yl)methyl)octanamide] were, in that order, 5.68, 6.01, 5.80 and 6.40.
Taken in the same sequence, the figures for `COc1cc2c(N[C@H](C)c3cccc(Br)c3)nc(C)nc2cc1OCCCCCCCC(=O)NCc1cccc2c1CN(C1CCC(=O)NC1=O)C2=O` (stereo partly drawn) [Compound A7, 8-((4-(((R)-1-(3-Bromophenyl)ethyl)amino)-6-methoxy-2-methylquinazolin-7-yl)oxy)-N-((2-(2,6-dioxopiperidin-3-yl)-1-oxoisoindolin-4-yl)methyl)octanamide] were 5.19, 5.46, 5.27 and 5.30.
As to `COc1cc2c(N[C@H](C)c3cccc(Br)c3)nc(C)nc2cc1OCCCCCCC(=O)N[C@H](C(=O)N1C[C@H](O)C[C@H]1C(=O)NCc1ccc(-c2scnc2C)cc1)C(C)(C)C` [Compound D1, (2S,4R)-1-((S)-2-(7-((4-(((R)-1-(3-Bromophenyl)ethyl)amino)-6-methoxy-2-methylquinazolin-7-yl)oxy)heptanamido)-3,3-dimethylbutanoyl)-4-hydroxy-N-(4-(4-methyl-thiazol-5-yl)benzyl)pyrrolidine-2-carboxamide], the pIC50 in the assay on SW480 cells (G12V) is 5.89; with Lovo cells (G13D) it was 5.19; in the assay with H358 cells (G12C), 5.80; with SW48 cells (wt), 5.10.
Take `COc1ccc(C2=N[C@@H](c3ccc(Cl)cc3)[C@@H](c3ccc(Cl)cc3)N2C(=O)N2CCN(CC(=O)NCCCCCCCCCCOc3cc4nc(C)nc(N[C@H](C)c5cccc(Br)c5)c4cc3OC)CC2)c(OC(C)C)c1` [Compound C5, 2-(4-((4S,5R)-4,5-Bis(4-chlorophenyl)-2-(2-isopropoxy-4-methoxyphenyl)-4,5-dihydro-1H-imidazole-1-carbonyl)piperazin-1-yl)-N-(10-((4-(((R)-1-(3-bromophenyl)ethyl)-amino)-6-methoxy-2-methylquinazolin-7-yl)oxy)decyl)acetamide]: the negative-log IC50 (pIC50) with SW480 cells (G12V), with Lovo cells (G13D), in the assay with H358 cells (G12C) and in the assay with SW48 cells (wt) was less than 5.00 each time.
